Key:
bedstraw = assay: Test B pre/postemergence bedstraw; type: in vivo, Galium aparine; details: Preemergence
In short: (§1)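 Test chemicals in a non-phytotoxic solvent mixture with surfactant were sprayed preemergence onto planted seeds and postemergence onto plants 2 to 18 cm tall (1- to 4-leaf stage). After twelve to sixteen days in a greenhouse, injury was visually rated against untreated controls from 0 (no effect) to 10 (complete control).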

blackgrass = assay: Test B pre/postemergence blackgrass; type: in vivo, Alopecurus myosuroides
In short: as §1

surinam grass = assay: Test B pre/postemergence surinam grass; type: in vivo, Brachiaria decumbens
In short: as §1

cocklebur = assay: Test B pre/postemergence cocklebur; type: in vivo, Xanthium strumarium
In short: as §1

corn = assay: Test B pre/postemergence corn; type: in vivo, Zea mays
In short: as §1

crabgrass = assay: Test B pre/postemergence crabgrass; type: in vivo, Digitaria sanguinalis
In short: as §1

giant foxtail = assay: Test B pre/postemergence giant foxtail; type: in vivo, Setaria faberii
In short: as §1

morningglory = assay: Test B pre/postemergence morningglory; type: in vivo, Ipomoea hederacea
In short: as §1

pigweed = assay: Test B pre/postemergence pigweed; type: in vivo, Amaranthus retroflexus
In short: as §1

rape = assay: Test B pre/postemergence rape; type: in vivo, Brassica napus
In short: as §1

soybean = assay: Test B pre/postemergence soybean; type: in vivo, Glycine max
In short: as §1

sugar beet = assay: Test B pre/postemergence sugar beet; type: in vivo, Beta vulgaris
In short: as §1

velvetleaf = assay: Test B pre/postemergence velvetleaf; type: in vivo, Abutilon theophrasti
In short: as §1

wheat = assay: Test B pre/postemergence wheat; type: in vivo, Triticum aestivum
In short: as §1

wild oat = assay: Test B pre/postemergence wild oat; type: in vivo, Avena fatua
In short: as §1

purple nutsedge = assay: Test B pre/postemergence purple nutsedge; type: in vivo, Cyperus rotundus
In short: as §1

rice = assay: Test B flood test rice; type: in vivo, Oryza sativa
In short: (§2)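 Plants were grown to the 2-leaf stage before treatment with test chemical, then held in a greenhouse for twelve to sixteen days. Injury was visually rated against untreated controls on a 0–10 scale, where 0 is no effect and 10 is complete control.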

smallflower flatsedge = assay: Test B flood test smallflower flatsedge; type: in vivo, Cyperus difformis
In short: as §2

duck salad = assay: Test B flood test duck salad; type: in vivo, Heteranthera limosa
In short: as §2

bamyardgrass = assay: Test B flood test barnyardgrass; type: in vivo, Echinochloa crus-galli
In short: as §2

[1] = Postemergence, Rate 62 g/ha, scale 0 to 10, 0 is no effect, 10 is complete control
[2] = Postemergence, Rate 125 g/ha, scale of 0 to 10 where 0 is no effect and 10 is complete control
[3] = Postemergence, Rate 250 g/ha, scale of 0 to 10, 0 is no effect, 10 is complete control
[4] = Postemergence, Rate 500 g/ha, scale of 0 to 10 where 0 is no effect and 10 is complete control
[5] = Preemergence, Rate 62 g/ha, scale 0 to 10 (0 no effect, 10 complete control)
[6] = Preemergence, Rate 125 g/ha, scale of 0 to 10 where 0 is no effect and 10 is complete control
[7] = Preemergence, Rate 500 g/ha, scale of 0 to 10 where 0 is no effect and 10 is complete control
[8] = Rate 62 g/ha, flood test species, Pre-emergence, visual evaluation after twelve to sixteen days
[9] = Rate 125 g/ha, under heading Pre-emergence, flood test species, visual evaluation after twelve to sixteen days
[10] = Rate 250 g/ha, Pre-emergence (flood test species), scale 0 to 10, 0 is no effect, 10 is complete control
[11] = Rate 500 g/ha, Pre-emergence section of Table B, 0 to 10 scale (0 no effect, 10 complete control)

For CC(C)N(C(=O)n1oc(=O)n(CC(C)[N+](=O)[O-])c1=O)c1ccccc1 (stereo not drawn) [Compound 604], the “Bedstraw plant response rating (0 to 10 scale)” value (bedstraw; Rate 250 g/ha) was 0, the “Bedstraw plant response rating” value (bedstraw; Rate 500 g/ha, scale of 0 to 10 where 0 is no effect and 10 is complete control) was 0 and the “Plant response rating, Blackgrass” value (blackgrass; [1]) was 0. The “Plant response rating, Blackgrass” value (blackgrass; [2]) was 0, the “Blackgrass plant response rating” value (blackgrass; [3]) was 0 and the “Plant response rating, Blackgrass” value (blackgrass; [4]) was 0. The “Blackgrass plant response rating” value (blackgrass; [5]) was 0, the “Blackgrass plant response rating” value (blackgrass; [6]) was 0 and the “Blackgrass plant response rating (0 to 10 scale)” value (blackgrass; Preemergence, Rate 250 g/ha) was 0. The “Blackgrass plant response rating” value (blackgrass; [7]) was 0, the “Plant response rating, B. signalgrass” value (surinam grass; [1]) was 0 and the “Plant response rating, B. signalgrass” value (surinam grass; [2]) was 0. For the same molecule, the “B. signalgrass plant response rating” value (surinam grass; [3]) was 0, the “Plant response rating, B. signalgrass” value (surinam grass; [4]) was 0 and the “B. signalgrass plant response rating” value (surinam grass; [5]) was 0. For the same molecule, the “B. signalgrass plant response rating” value (surinam grass; [6]) was 0, the “B. signalgrass plant response rating (0 to 10 scale, 0 is no effect, 10 is complete control)” value (surinam grass; Preemergence, Rate 250 g/ha) was 0 and the “B. signalgrass plant response rating” value (surinam grass; [7]) was 0. For the same molecule, the “Plant response rating, Cocklebur” value (cocklebur; [1]) was 0, the “Plant response rating, Cocklebur” value (cocklebur; [2]) was 0 and the “Cocklebur plant response rating” value (cocklebur; [3]) was 0. For the same molecule, the “Plant response rating, Cocklebur” value (cocklebur; [4]) was 0, the “Cocklebur plant response rating” value (cocklebur; [5]) was 0 and the “Cocklebur plant response rating” value (cocklebur; [6]) was 0. The “Cocklebur plant response rating (0 to 10 scale)” value (cocklebur; Preemergence, Rate 250 g/ha) was 0, the “Plant response rating, Cocklebur” value (cocklebur; [7]) was 0 and the “Plant response rating, Corn” value (corn; [1]) was 0. For the same molecule, the “Plant response rating, Corn” value (corn; [2]) was 0, the “Corn plant response rating” value (corn; [3]) was 0 and the “Plant response rating, Corn” value (corn; [4]) was 0. For the same molecule, the “Corn plant response rating” value (corn; [5]) was 0, the “Corn plant response rating” value (corn; [6]) was 0 and the “Corn plant response rating (0 to 10 scale)” value (corn; Preemergence, Rate 250 g/ha) was 0. The “Plant response rating, Corn” value (corn; [7]) was 0, the “Plant response rating, Crabgrass” value (crabgrass; [1]) was 1 and the “Crabgrass plant response rating” value (crabgrass; [3]) was 3. For the same molecule, the “Plant response rating, Crabgrass” value (crabgrass; [4]) was 3, the “Crabgrass plant response rating” value (crabgrass; [5]) was 0 and the “Crabgrass plant response rating” value (crabgrass; [6]) was 0. For the same molecule, the “Plant response rating, Crabgrass” value (crabgrass; [7]) was 1, the “Plant response rating, Giant foxtail” value (giant foxtail; [1]) was 1 and the “Plant response rating, Giant foxtail” value (giant foxtail; [2]) was 2. For the same molecule, the “Giant foxtail plant response rating” value (giant foxtail; [3]) was 3, the “Plant response rating, Giant foxtail” value (giant foxtail; [4]) was 4 and the “Giant foxtail plant response rating” value (giant foxtail; [5]) was 0. The “Giant foxtail plant response rating” value (giant foxtail; [6]) was 2, the “Plant response rating, Giant foxtail” value (giant foxtail; [7]) was 7 and the “Plant response rating, Morningglory” value (morningglory; [1]) was 0. For the same molecule, the “Plant response rating, Morningglory” value (morningglory; [2]) was 1, the “Morningglory plant response rating” value (morningglory; [3]) was 2 and the “Plant response rating, Morningglory” value (morningglory; [4]) was 2. For the same molecule, the “Morningglory plant response rating” value (morningglory; [5]) was 0, the “Morningglory plant response rating” value (morningglory; [6]) was 0 and the “Plant response rating, Morningglory” value (morningglory; [7]) was 0. The “Plant response rating, Redroot pigweed” value (pigweed; [1]) was 0, the “Plant response rating, Redroot pigweed” value (pigweed; [2]) was 0 and the “Redroot pigweed plant response rating” value (pigweed; [3]) was 0. The “Plant response rating, Redroot pigweed” value (pigweed; [4]) was 0, the “Redroot pigweed plant response rating” value (pigweed; [5]) was 0 and the “Redroot pigweed plant response rating” value (pigweed; [6]) was 0. The “Plant response rating, Redroot pigweed” value (pigweed; [7]) was 0, the “Plant response rating, Rape” value (rape; [1]) was 0 and the “Plant response rating, Rape” value (rape; [2]) was 0. For the same molecule, the “Rape plant response rating” value (rape; [3]) was 0, the “Plant response rating, Rape” value (rape; [4]) was 0 and the “Rape plant response rating” value (rape; [5]) was 0. For the same molecule, the “Rape plant response rating” value (rape; [6]) was 0, the “Plant response rating, Rape” value (rape; [7]) was 0 and the “Plant response rating, Soybean” value (soybean; [1]) was 0. The “Plant response rating, Soybean” value (soybean; [2]) was 1, the “Soybean plant response rating” value (soybean; [3]) was 1 and the “Plant response rating, Soybean” value (soybean; [4]) was 1. For the same molecule, the “Soybean plant response rating” value (soybean; [5]) was 0, the “Soybean plant response rating” value (soybean; [6]) was 0 and the “Plant response rating, Soybean” value (soybean; [7]) was 0. For the same molecule, the “Plant response rating, Sugarbeets” value (sugar beet; [1]) was 0, the “Plant response rating, Sugarbeets” value (sugar beet; [2]) was 0 and the “Sugarbeets plant response rating” value (sugar beet; [3]) was 0. For the same molecule, the “Plant response rating, Sugarbeets” value (sugar beet; [4]) was 0, the “Sugarbeets plant response rating” value (sugar beet; [5]) was 0 and the “Sugarbeets plant response rating” value (sugar beet; [6]) was 0. For the same molecule, the “Plant response rating, Sugarbeets” value (sugar beet; [7]) was 0, the “Plant response rating, Velvetleaf” value (velvetleaf; [1]) was 0 and the “Plant response rating, Velvetleaf” value (velvetleaf; [2]) was 0. For the same molecule, the “Velvetleaf plant response rating” value (velvetleaf; [3]) was 0, the “Plant response rating, Velvetleaf” value (velvetleaf; [4]) was 0 and the “Velvetleaf plant response rating” value (velvetleaf; [5]) was 0. For the same molecule, the “Velvetleaf plant response rating” value (velvetleaf; [6]) was 0, the “Plant response rating, Velvetleaf” value (velvetleaf; [7]) was 0 and the “Plant response rating, Wheat” value (wheat; [1]) was 0. The “Plant response rating, Wheat” value (wheat; [2]) was 0, the “Wheat plant response rating” value (wheat; [3]) was 0 and the “Plant response rating, Wheat” value (wheat; [4]) was 0. The “Wheat plant response rating” value (wheat; [5]) was 0, the “Wheat plant response rating” value (wheat; [6]) was 0 and the “Plant response rating, Wheat” value (wheat; [7]) was 0. The “Plant response rating, Wild oats” value (wild oat; [1]) was 0, the “Plant response rating, Wild oats” value (wild oat; [2]) was 0 and the “Wild oats plant response rating” value (wild oat; [3]) was 0. For the same molecule, the “Plant response rating, Wild oats” value (wild oat; [4]) was 0, the “Wild oats plant response rating” value (wild oat; [5]) was 0 and the “Wild oats plant response rating” value (wild oat; [6]) was 0. The “Plant response rating, Wild oats” value (wild oat; [7]) was 0, the “Plant response rating, Nutsedge” value (purple nutsedge; [1]) was 0 and the “Plant response rating, Nutsedge” value (purple nutsedge; [2]) was 0. For the same molecule, the “Nutsedge plant response rating” value (purple nutsedge; [3]) was 0, the “Plant response rating, Nutsedge” value (purple nutsedge; [4]) was 0 and the “Nutsedge plant response rating” value (purple nutsedge; [5]) was 0. The “Nutsedge plant response rating” value (purple nutsedge; [6]) was 0, the “Plant response rating, Nutsedge” value (purple nutsedge; [7]) was 0 and the “Plant response rating, Rice (0 to 10 scale, 0 is no effect, 10 is complete control)” value (rice; [8]) was 0. For the same molecule, the “Rice plant response rating (0 to 10 scale, 0 is no effect, 10 is complete control)” value (rice; [9]) was 0, the “Rice plant response rating” value (rice; [10]) was 0 and the “Rice plant response rating” value (rice; [11]) was 0. For the same molecule, the “Plant response rating, S. Flatsedge (0 to 10 scale, 0 is no effect, 10 is complete control)” value (smallflower flatsedge; [8]) was 0, the “S. Flatsedge plant response rating (0 to 10 scale, 0 is no effect, 10 is complete control)” value (smallflower flatsedge; [9]) was 0 and the “S. Flatsedge plant response rating” value (smallflower flatsedge; [10]) was 0. For the same molecule, the “S. Flatsedge plant response rating” value (smallflower flatsedge; [11]) was 0, the “Plant response rating, Ducksalad (0 to 10 scale, 0 is no effect, 10 is complete control)” value (duck salad; [8]) was 0 and the “Ducksalad plant response rating (0 to 10 scale, 0 is no effect, 10 is complete control)” value (duck salad; [9]) was 0. For the same molecule, the “Ducksalad plant response rating” value (duck salad; [10]) was 0, the “Ducksalad plant response rating” value (duck salad; [11]) was 0 and the “Plant response rating, Barnyardgrass (0 to 10 scale, 0 is no effect, 10 is complete control)” value (bamyardgrass; [8]) was 0. The “Barnyardgrass plant response rating (0 to 10 scale, 0 is no effect, 10 is complete control)” value (bamyardgrass; [9]) was 0, the “Barnyardgrass plant response rating” value (bamyardgrass; [10]) was 0 and the “Barnyardgrass plant response rating” value (bamyardgrass; [11]) was 0.

— US6737383B1, “Herbicidal oxadiazolidines” (priority 1999, dated 2004)
